What follows are compounds tested against T1, human mGluR7 (Homo sapiens, UniProt Q14831) (assay: mGluR7 assay: CRE-directed luciferase reporter gene assay, reduction of forskolin stimulated cAMP production). Conditions: stable CHO cell line expressing the CRE-luc reporter and human mGluR7 genes; decrease of forskolin stimulated luminescence; 10-point concentration-response, duplicate wells.
T1 construct: expressed in transfected cells
Assay type: cell-based
Description: The ability of the test compounds to activate mGluR7 was determined by their ability to reduce forskolin stimulated cAMP production. Compounds were assessed in a CRE-directed luciferase reporter gene assay, using a stable CHO cell line expressing the CRE-luc reporter and human mGluR7 genes. In this cell line, production of cAMP stimulated the transcription of the luciferase gene and luciferase activity was then measured in a luminescent enzyme assay (Steady Glo assay; Promega E2550). Activation of mGluR7 decreased the forskolin stimulated luminescence signal.
The day prior to the assay, compounds were serially diluted in DMSO (100× final assay concentration (FAC)), in 384-well plates which were then stored in the dark at room temperature (RT) until use. Cells were seeded at 12.5 k/well in white, clear bottom 384-well plates (Corning 3707) and left for one hour at RT followed by an overnight incubation (37° C.). The following day, the DMSO compound plate was diluted 1:20 (5× FAC) in Opti-MEM I (Life Technologies 11058021). The growth media was removed from the cell plate and replaced with 15 μl Opti-MEM I, followed by a 5 μl addition from the 5× compound plate and a fifteen minute incubation (37° C.). Forskolin (Sigma F3917) was then added to the wells (5 μl of 2.5 μM) and the plate was incubated for five hours (37° C.). During this incubation, the Steady Glo Substrate reagent was warmed to 37° C. Aliquots (11 ml; stored at −20° C.) of this reagent were prepared by dissolving the contents of 1 vial of lyophilised substrate in 100 ml Steady-Glo buffer. A 25 μl addition of the substrate was made to all wells and the plate was incubated for thirty minutes at RT, on a plate shaker (300 rpm; in the dark). Luminescence was then measured using the EnVision Multilabel Reader (Perkin Elmer).
Compound activity was examined using a 10-point, half log concentration-response range and each concentration was tested in duplicate wells. Luminescence values were normalised to ‘maximum’ (forskolin alone) and ‘minimum’ (forskolin in the presence of tool mGluR7 agonist) controls.

T1 sequence (Q14831 35-915): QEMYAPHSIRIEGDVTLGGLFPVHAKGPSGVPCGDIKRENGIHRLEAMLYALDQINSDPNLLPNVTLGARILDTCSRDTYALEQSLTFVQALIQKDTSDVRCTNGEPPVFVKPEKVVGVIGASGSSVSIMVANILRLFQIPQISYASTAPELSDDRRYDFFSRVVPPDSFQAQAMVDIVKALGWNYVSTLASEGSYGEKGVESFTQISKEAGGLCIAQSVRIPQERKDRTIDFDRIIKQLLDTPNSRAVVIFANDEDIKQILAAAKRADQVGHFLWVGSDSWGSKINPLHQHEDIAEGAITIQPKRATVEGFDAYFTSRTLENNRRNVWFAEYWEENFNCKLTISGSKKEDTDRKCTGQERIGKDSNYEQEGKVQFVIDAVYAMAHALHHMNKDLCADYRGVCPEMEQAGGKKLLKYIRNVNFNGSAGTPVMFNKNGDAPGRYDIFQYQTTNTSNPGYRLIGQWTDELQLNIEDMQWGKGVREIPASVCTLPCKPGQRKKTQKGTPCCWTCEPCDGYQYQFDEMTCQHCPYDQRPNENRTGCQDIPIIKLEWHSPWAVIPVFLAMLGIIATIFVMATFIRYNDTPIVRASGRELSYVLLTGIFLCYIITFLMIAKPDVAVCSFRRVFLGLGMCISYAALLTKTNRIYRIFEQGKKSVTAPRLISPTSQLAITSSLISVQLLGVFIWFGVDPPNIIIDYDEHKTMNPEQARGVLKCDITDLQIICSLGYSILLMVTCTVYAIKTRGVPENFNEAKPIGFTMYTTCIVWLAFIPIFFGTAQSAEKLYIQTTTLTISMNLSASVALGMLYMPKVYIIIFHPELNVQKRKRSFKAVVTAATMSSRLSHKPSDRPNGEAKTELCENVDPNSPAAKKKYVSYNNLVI

Going from `CCO[C@@H]1c2ccccc2C[C@H]1NC(=O)[C@@H](NCc1csc(C)n1)c1ccc(F)cc1` (mixture of isomers) [Example 60, (2S)—N-(trans)-(1-ethoxy-2,3-dihydro-1H-inden-2-yl)-2-(4-fluorophenyl)-2-{[(2-methyl-1,3-thiazol-4-yl)methyl]amino}acetamide] to `CCOC1c2ccccc2CC1NC(=O)[C@@H](C)c1ccc(F)cc1` (single isomer, unassigned) [Example 32], the EC50 rises from 3 nM to 14 nM (4.7-fold).

Compared with `CC(C)(C)OC(=O)N[C@H]1c2ccccc2C[C@@H]1NC(=O)C(c1ccc(F)cc1F)n1cccn1` (mixture of isomers) [Example 81, tert-butyl N-[(1S,2S)-2-[2-(2,4-difluorophenyl)-2-(1H-pyrazol-1-yl)acetamido]-2,3-dihydro-1H-inden-1-yl]carbamate], `Cc1nccn1C(C(=O)N[C@H]1Cc2ccccc2[C@@H]1NC(=O)OC(C)(C)C)c1ccc(F)cc1F` (mixture of isomers) [Example 82, tert-butyl N-[(1S,2S)-2-[2-(2,4-difluorophenyl)-2-(2-methyl-1H-imidazol-1-yl)acetamido]-2,3-dihydro-1H-inden-1-yl]carbamate] is 9.3-fold higher in EC50: 83 nM for the first, 772 nM for the second.

Going from `CC(C)(C)OC(=O)N[C@H]1c2ccccc2C[C@@H]1NC(=O)C(c1ccc(F)cc1F)N1CC(F)C1` (mixture of isomers) [Example 93, tert-butyl N-[(1S,2S)-2-[2-(2,4-difluorophenyl)-2-(3-fluoroazetidin-1-yl)acetamido]-2,3-dihydro-1H-inden-1-yl]carbamate] to `CC(C)(C)OC(=O)N[C@H]1c2ccccc2C[C@@H]1NC(=O)C(c1ccc(F)cc1F)n1ccccc1=O` (single isomer, unassigned) [Example 48], the EC50 rises from 23 nM to 336 nM (15-fold). The first is the more potent here.

Going from `C[C@H](C(=O)NC1Cc2ccccc2C1O)c1ccccc1` (mixture of isomers) [Example 2, (2S)—N-((trans)-1-hydroxy-2,3-dihydro-1H-inden-2-yl)-2-phenylpropanamide] to `COC1c2ccccc2CC1NC(=O)[C@@H](C)c1ccccc1` (mixture of isomers) [Example 7, (2S)—N-((trans)-1-methoxy-2,3-dihydro-1H-inden-2-yl)-2-phenylpropanamide], the EC50 falls from 107 nM to 29 nM (3.7-fold). The second is the more potent here.

`COC1c2ccccc2CC1NC(=O)[C@@H](C)c1ccc(F)cc1F` (mixture of isomers) [Example 25, (2S)-2-(2,4-difluorophenyl)-N-((trans)-1-methoxy-2,3-dihydro-1H-inden-2-yl)propanamide] and `CCOC1c2ccccc2CC1NC(=O)[C@@H](C)c1ccc(F)cc1F` (mixture of isomers) [Example 28, (2S)-2-(2,4-difluorophenyl)-N-((trans)-1-ethoxy-2,3-dihydro-1H-inden-2-yl)propanamide] are within 1.5-fold of each other in EC50: 24 nM for the first, 28 nM for the second.

`COC1c2ccccc2CC1NC(=O)[C@@H](C)c1ccc(F)cc1` (mixture of isomers) [Example 36, (2S)-2-(4-fluorophenyl)-N-((trans)-1-methoxy-2,3-dihydro-1H-inden-2-yl)propanamide] and `CCOC1c2ccccc2CC1NC(=O)[C@@H](C)c1ccc(F)cc1` (single isomer, unassigned) [Example 33] are within 1.5-fold of each other in EC50: 36 nM for the first, 39 nM for the second.

First: CC[C@H](C(=O)NC1Cc2ccccc2C1OC)c1ccc(F)cc1 (mixture of isomers) [Example 44, (2S)-2-(4-fluorophenyl)-N-((trans)-1-methoxy-2,3-dihydro-1H-inden-2-yl)butanamide]
Second: COC1c2ccccc2CC1NC(=O)[C@@H](C)c1ccc(F)cc1 (single isomer, unassigned) [Example 37]
The EC50 of the first is 4.2-fold lower: 9 nM for the first, 38 nM for the second.

Compared with `COC1c2ccccc2CC1NC(=O)[C@@H](N)c1ccc(F)cc1` (mixture of isomers) [Example 54, (2S)-2-amino-2-(4-fluorophenyl)-N-(trans)-(1-methoxy-2,3-dihydro-1H-inden-2-yl)acetamide], `COC1c2ccccc2CC1NC(=O)[C@@H](C)c1ccc(F)cc1` (single isomer, unassigned) [Example 38] is 4.1-fold lower in EC50: 66 nM for the first, 16 nM for the second.

Compared with `C[C@H](C(=O)NC1Cc2ccccc2C1N1CCCC1)c1ccccc1` (mixture of isomers) [Example 78, (2S)-2-phenyl-N-(trans)-[1-(pyrrolidin-1-yl)-2,3-dihydro-1H-inden-2-yl]propanamide], `C[C@H](C(=O)NC1Cc2ccccc2C1N1CCCC1)c1ccc(F)cc1` (single isomer, unassigned) [Example 67] is 20-fold lower in EC50: 322 nM for the first, 16 nM for the second. The second is the more potent here.

First: CS(=O)(=O)[C@@H]1c2ccccc2C[C@H]1NC(=O)C(OCC1CC1)c1ccccc1 (relative stereo) [Example 135, 2-(cyclopropylmethoxy)-N-(trans)-(1-methanesulfonyl-2,3-dihydro-1H-inden-2-yl)-2-phenylacetamide]
Second: C[C@H](C(=O)NC1Cc2ccccc2C1O)c1ccccc1 (single isomer, unassigned) [Example 3]
The EC50 of the first is 87-fold lower: 4 nM for the first, 349 nM for the second. The first is the more potent here.

First: C[C@H](C(=O)NC1Cc2ccccc2C1O)c1ccccc1 (single isomer, unassigned) [Example 4]
Second: COC1c2ccccc2CC1NC(=O)[C@@H](C)c1ccccc1 (single isomer, unassigned) [Example 8]
The EC50 of the first is 2.1-fold higher: 121 nM for the first, 57 nM for the second. The second is the more potent here.

Compared with `C[C@H](C(=O)NC1Cc2ccccc2C1O)c1ccccc1` (single isomer, unassigned) [Example 5], `COC1c2ccccc2CC1NC(=O)[C@@H](C)c1ccccc1` (single isomer, unassigned) [Example 9] is 18-fold lower in EC50: 654 nM for the first, 37 nM for the second.

Compared with `C[C@H](C(=O)NC1Cc2ccccc2C1O)c1ccccc1` (single isomer, unassigned) [Example 6], `C[C@H](C(=O)NC1Cc2ccccc2C1O)c1ccc(F)cc1` (single isomer, unassigned) [Example 62] is 2.2-fold lower in EC50: 1560 nM for the first, 704 nM for the second. The second is the more potent here.

Compared with `CCC(C(=O)N[C@H]1Cc2ccccc2[C@@H]1N)c1ccc(F)cc1F` (single isomer, unassigned) [Example 15], `CCOC1c2ccccc2CC1NC(=O)C(C)c1ccc(F)cc1F` (single isomer, unassigned) [Example 29] is 2.5-fold lower in EC50: 25 nM for the first, 10 nM for the second. The second is the more potent here.

Going from `CCC(C(=O)N[C@H]1Cc2ccccc2[C@@H]1N)c1ccc(F)cc1F` (single isomer, unassigned) [Example 16] to `CCOC1c2ccccc2CC1NC(=O)C(C)c1ccc(F)cc1F` (single isomer, unassigned) [Example 30], the EC50 falls from 747 nM to 22 nM (34-fold).

First: COC1c2ccccc2CC1NC(=O)[C@@H](C)c1ccc(F)cc1F (single isomer, unassigned) [Example 26]
Second: CC[C@H](C(=O)NC1Cc2ccccc2C1OC)c1ccc(F)cc1 (single isomer, unassigned) [Example 45]
The EC50 of the first is 3.8-fold higher: 64 nM for the first, 17 nM for the second. The second is the more potent here.

Compared with `COC1c2ccccc2CC1NC(=O)[C@@H](C)c1ccc(F)cc1F` (single isomer, unassigned) [Example 27], `CC[C@H](C(=O)NC1Cc2ccccc2C1OC)c1ccc(F)cc1` (single isomer, unassigned) [Example 46] is 1.9-fold lower in EC50: 21 nM for the first, 11 nM for the second. The second is the more potent here.

Going from `CC(C)(C)OC(=O)N[C@H]1c2ccccc2C[C@@H]1NC(=O)C(c1ccc(F)cc1F)n1ccccc1=O` (single isomer, unassigned) [Example 49] to `N[C@H]1c2ccccc2C[C@@H]1NC(=O)C(c1ccc(F)cc1F)n1ccccc1=O` (single isomer, unassigned) [Example 50], the EC50 rises from 133 nM to 3920 nM (29-fold). The first is the more potent here.

Going from `N[C@H]1c2ccccc2C[C@@H]1NC(=O)C(c1ccc(F)cc1F)n1ccccc1=O` (single isomer, unassigned) [Example 51] to `CC(F)(C(=O)N[C@H]1Cc2ccccc2[C@@H]1N)c1ccc(F)cc1` (single isomer, unassigned) [Example 76], the EC50 falls from 565 nM to 288 nM (2-fold).

Going from `COC1c2ccccc2CC1NC(=O)[C@@H](NCC1CC1)c1ccc(F)cc1` (single isomer, unassigned) [Example 55] to `C[C@H](C(=O)NC1Cc2ccccc2C1O)c1ccc(F)cc1` (single isomer, unassigned) [Example 63], the EC50 rises from 1 nM to 767 nM (770-fold).

First: COC1c2ccccc2CC1NC(=O)[C@@H](NCC1CC1)c1ccc(F)cc1 (single isomer, unassigned) [Example 56]
Second: C[C@H](C(=O)NC1Cc2ccccc2C1NCC(F)F)c1ccc(F)cc1 (single isomer, unassigned) [Example 84]
The EC50 of the first is 8-fold lower: 1 nM for the first, 8 nM for the second.

Compared with `C[C@H](C(=O)NC1Cc2ccccc2C1N1CCCC1)c1ccc(F)cc1` (single isomer, unassigned) [Example 68], `C[C@H](C(=O)NC1Cc2ccccc2C1N1CCOCC1)c1ccc(F)cc1` (single isomer, unassigned) [Example 73] is 1.6-fold higher in EC50: 28 nM for the first, 45 nM for the second. The first is the more potent here.

Compared with `CC(C(=O)N[C@H]1Cc2ccccc2[C@@H]1N)c1ccc(Cl)cc1` (single isomer, unassigned) [Example 69], `CC(F)(C(=O)N[C@H]1Cc2ccccc2[C@@H]1N)c1ccc(F)cc1` (single isomer, unassigned) [Example 77] is 56-fold higher in EC50: 47 nM for the first, 2630 nM for the second.

`CC(C(=O)N[C@H]1Cc2ccccc2[C@@H]1N)c1ccc(Cl)cc1` (single isomer, unassigned) [Example 70] was tested, and the EC50 was 956 nM.
